Results from PubChem BioAssay AID248 (DTP/NCI, 2004).
Inconclusive results and toxic doses are left out. Rule as the data show it: active = T/C of 150% or more; inactive = T/C below 125%.

Test system: L1210 leukemia ip in BDF1 mice, survival T/C
Test: NCI In Vivo Anticancer Drug Screen. Data for tumor model L1210 Leukemia (intraperitoneal) in B6D2F1 (BDF1) mice
Conditions: endpoint: mean survival time, higher = longer survival
In short: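 In this screen, tumor-bearing mice given compound are compared to those given vehicle, and their survival values are reported as a treated-to-control quotient.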

[1] = dose: 5.0 mg/kg/injection, schedule: Q01DX009 (ip), vehicle: Klucel (hydroxypropylcellulose) (HPC)
[2] = dose: 10.0 mg/kg/injection, schedule: Q01DX009 (ip), vehicle: Klucel (hydroxypropylcellulose) (HPC)
[3] = dose: 20.0 mg/kg/injection, schedule: Q01DX009 (ip), vehicle: Klucel (hydroxypropylcellulose) (HPC)
[4] = dose: 100.0 mg/kg/injection, schedule: Q04DX002 (ip), vehicle: saline with Tween-80
[5] = dose: 200.0 mg/kg/injection, schedule: Q04DX002 (ip), vehicle: saline with Tween-80
[6] = dose: 400.0 mg/kg/injection, schedule: Q04DX002 (ip), vehicle: saline with Tween-80
[7] = dose: 100.0 mg/kg/injection, schedule: Q04DX003 (ip), vehicle: Klucel (hydroxypropylcellulose) (HPC)
[8] = dose: 200.0 mg/kg/injection, schedule: Q04DX003 (ip), vehicle: Klucel (hydroxypropylcellulose) (HPC)
[9] = dose: 400.0 mg/kg/injection, schedule: Q04DX003 (ip), vehicle: Klucel (hydroxypropylcellulose) (HPC)
[10] = dose: 100.0 mg/kg/injection, schedule: Q01DX001 (ip), vehicle: carboxymethylcellulose (CMC)
[11] = dose: 200.0 mg/kg/injection, schedule: Q01DX001 (ip), vehicle: carboxymethylcellulose (CMC)
[12] = dose: 400.0 mg/kg/injection, schedule: Q01DX001 (ip), vehicle: carboxymethylcellulose (CMC)
[13] = dose: 100.0 mg/kg/injection, schedule: Q04DX003 (ip), vehicle: saline with Tween-80
[14] = dose: 200.0 mg/kg/injection, schedule: Q04DX003 (ip), vehicle: saline with Tween-80
[15] = dose: 400.0 mg/kg/injection, schedule: Q04DX003 (ip), vehicle: saline with Tween-80
[16] = dose: 100.0 mg/kg/injection, schedule: Q01DX001 (ip), vehicle: saline
[17] = dose: 400.0 mg/kg/injection, schedule: Q01DX001 (ip), vehicle: saline

Measured: T/C

CC1=CCC2C(=O)C=CC(=O)C2C1 (stereo not drawn)
inactive: [1] 98 % of control | dose: 10.0 mg/kg/injection, schedule: Q01DX001 (ip), vehicle: carboxymethylcellulose (CMC) 107 % of control | [2] 89 % of control | dose: 20.0 mg/kg/injection, schedule: Q01DX001 (ip), vehicle: carboxymethylcellulose (CMC) 109 % of control | [3] 96 % of control | dose: 40.0 mg/kg/injection, schedule: Q01DX001 (ip), vehicle: carboxymethylcellulose (CMC) 107 % of control | dose: 80.0 mg/kg/injection, schedule: Q01DX001 (ip), vehicle: carboxymethylcellulose (CMC) 109 % of control

CCCCCCCCCCCCCCCCCCSC(C)(C)SCCCCCCCCCCCCCCCCCC
inactive: [4] 106 % of control | [5] 89 % of control | [6] 92 % of control

COc1cc2c3c(c1O)-c1c(ccc(OC)c1OC)CC3N(C)CC2 (stereo not drawn)
inactive: dose: 100.0 mg/kg/injection, schedule: Q01DX001 (ip), vehicle: saline with Tween-80 103 % of control | dose: 200.0 mg/kg/injection, schedule: Q01DX001 (ip), vehicle: saline with Tween-80 102 % of control | dose: 400.0 mg/kg/injection, schedule: Q01DX001 (ip), vehicle: saline with Tween-80 102 % of control

CCC/C=C(C)/C=N\NC(=O)c1ccc[n+](C)c1
inactive: dose: 50.0 mg/kg/injection, schedule: Q01DX009 (ip), vehicle: saline with Tween-80 93 % of control | dose: 100.0 mg/kg/injection, schedule: Q01DX009 (ip), vehicle: saline with Tween-80 97 % of control

CCCCC(CCCC)(C(=O)OCC)C(=O)OCC
inactive: [4] 94 % of control | [7] 96 % of control | [5] 94 % of control | [8] 105 % of control | [6] 94 % of control | [9] 91 % of control

COc1ccccc1N=Nc1c(O)n(-c2ccc(C)cc2)c(=S)n(-c2ccccc2)c1=O
inactive: dose: 50.0 mg/kg/injection, schedule: Q01DX001 (ip), vehicle: Klucel (hydroxypropylcellulose) (HPC) 94 % of control | dose: 100.0 mg/kg/injection, schedule: Q01DX001 (ip), vehicle: Klucel (hydroxypropylcellulose) (HPC) 87 % of control | dose: 200.0 mg/kg/injection, schedule: Q01DX001 (ip), vehicle: Klucel (hydroxypropylcellulose) (HPC) 89 % of control

CCOC(=O)Nc1cc(NCC(O)CN(C)c2ccccc2)c(N)c(NC(=O)OCC)n1 (stereo not drawn)
inactive: [10] 87 % of control | [11] 87 % of control | [12] 92 % of control

O=[N+]([O-])c1ccc2c(c1)COCO2
inactive: [13] 95 % of control | [14] 95 % of control | [15] 97 % of control

Nc1ccc2c(c1)-c1ccccc1C1=NCCN12
inactive: dose: 2.5 mg/kg/injection, schedule: Q04DX003 (ip), vehicle: Klucel (hydroxypropylcellulose) (HPC) 102 % of control | [1] 98 % of control | dose: 5.0 mg/kg/injection, schedule: Q04DX003 (ip), vehicle: Klucel (hydroxypropylcellulose) (HPC) 102 % of control | [2] 98 % of control | dose: 10.0 mg/kg/injection, schedule: Q04DX003 (ip), vehicle: Klucel (hydroxypropylcellulose) (HPC) 93 % of control | [3] 96 % of control | dose: 20.0 mg/kg/injection, schedule: Q04DX003 (ip), vehicle: Klucel (hydroxypropylcellulose) (HPC) 90 % of control

NC(N)=NC=O
inactive: [4] 105 % of control | [5] 98 % of control

CC(=O)OCCn1c([N+](=O)[O-])cnc1/C=[N+](\[O-])C1CCCCC1
inactive: dose: 100.0 mg/kg/injection, schedule: Q04DX002 (ip), vehicle: Klucel (hydroxypropylcellulose) (HPC) 107 % of control | dose: 200.0 mg/kg/injection, schedule: Q04DX002 (ip), vehicle: Klucel (hydroxypropylcellulose) (HPC) 100 % of control | dose: 400.0 mg/kg/injection, schedule: Q04DX002 (ip), vehicle: Klucel (hydroxypropylcellulose) (HPC) 103 % of control

NC(CSS(=O)(=O)O)=NCCCc1c[nH]c2ccccc12
inactive: dose: 12.5 mg/kg/injection, schedule: Q04DX002 (ip), vehicle: Klucel (hydroxypropylcellulose) (HPC) 100 % of control | dose: 25.0 mg/kg/injection, schedule: Q04DX002 (ip), vehicle: Klucel (hydroxypropylcellulose) (HPC) 107 % of control | dose: 50.0 mg/kg/injection, schedule: Q04DX002 (ip), vehicle: Klucel (hydroxypropylcellulose) (HPC) 107 % of control

On1ccc(N2CCOCC2)cc1=Nc1ccccc1
inactive: [16] 96 % of control

S=C(c1ccco1)N1CCOCC1
inactive: dose: 75.0 mg/kg/injection, schedule: Q01DX001 (ip), vehicle: carboxymethylcellulose (CMC) 97 % of control | dose: 75.0 mg/kg/injection, schedule: Q01DX009 (ip), vehicle: saline with Tween-80 102 % of control | dose: 75.0 mg/kg/injection, schedule: Q04DX003 (ip), vehicle: saline with Tween-80 104 % of control | dose: 150.0 mg/kg/injection, schedule: Q01DX001 (ip), vehicle: carboxymethylcellulose (CMC) 104 % of control | dose: 150.0 mg/kg/injection, schedule: Q01DX009 (ip), vehicle: saline with Tween-80 100 % of control | dose: 150.0 mg/kg/injection, schedule: Q04DX003 (ip), vehicle: saline with Tween-80 97 % of control | dose: 300.0 mg/kg/injection, schedule: Q01DX001 (ip), vehicle: carboxymethylcellulose (CMC) 98 % of control | dose: 300.0 mg/kg/injection, schedule: Q04DX003 (ip), vehicle: saline with Tween-80 89 % of control

CCC1(Cc2ccsc2)C(=O)NC(=O)NC1=O
inactive: [10] 103 % of control | [11] 94 % of control | [12] 100 % of control

Clc1ccc(NC(Nc2ccc(Cl)c(Cl)c2)C(Cl)(Cl)Cl)cc1Cl
inactive: [13] 101 % of control | [14] 90 % of control

CC(C)(C)C1CCC(Cl)C(O)C1 (stereo not drawn)
inactive: dose: 100.0 mg/kg/injection, schedule: Q01DX009 (ip), vehicle: saline 104 % of control | dose: 200.0 mg/kg/injection, schedule: Q01DX009 (ip), vehicle: saline 100 % of control

CCOc1ccc(/C=N/NC(=O)c2cccc3ccccc23)cc1OCC
inactive: [16] 90 % of control | [17] 90 % of control

COc1ccc(/C=N/n2c3ccccc3c3ccccc32)cc1OCCN(C)C
inactive: dose: 3.12 mg/kg/injection, schedule: Q01DX009 (ip), vehicle: Klucel (hydroxypropylcellulose) (HPC) 96 % of control | dose: 6.25 mg/kg/injection, schedule: Q01DX009 (ip), vehicle: Klucel (hydroxypropylcellulose) (HPC) 101 % of control | dose: 12.5 mg/kg/injection, schedule: Q01DX009 (ip), vehicle: Klucel (hydroxypropylcellulose) (HPC) 97 % of control | dose: 25.0 mg/kg/injection, schedule: Q01DX009 (ip), vehicle: Klucel (hydroxypropylcellulose) (HPC) 102 % of control | dose: 25.0 mg/kg/injection, schedule: Q04DX003 (ip), vehicle: Klucel (hydroxypropylcellulose) (HPC) 98 % of control | dose: 50.0 mg/kg/injection, schedule: Q04DX003 (ip), vehicle: Klucel (hydroxypropylcellulose) (HPC) 96 % of control

Nc1cnccc1N1CCN(c2ccc(Cl)c(Cl)c2)CC1
inactive: dose: 100.0 mg/kg/injection, schedule: Q01DX009 (ip), vehicle: gum acacia 95 % of control

CCN(CC)C(=O)c1cccc(N)c1
inactive: [16] 98 % of control | dose: 200.0 mg/kg/injection, schedule: Q01DX001 (ip), vehicle: saline 98 % of control | [17] 95 % of control

O=C(OC12CCCC1CC2)c1ccc([N+](=O)[O-])cc1 (stereo not drawn)
inactive: [13] 91 % of control | [14] 103 % of control | [15] 100 % of control

CSc1ccc(/C=C/c2ccc([N+](=O)[O-])cc2)cc1
inactive: dose: 100.0 mg/kg/injection, schedule: Q01DX009 (ip), vehicle: Klucel (hydroxypropylcellulose) (HPC) 97 % of control | [7] 91 % of control | dose: 200.0 mg/kg/injection, schedule: Q01DX009 (ip), vehicle: Klucel (hydroxypropylcellulose) (HPC) 88 % of control | [8] 93 % of control | dose: 400.0 mg/kg/injection, schedule: Q01DX009 (ip), vehicle: Klucel (hydroxypropylcellulose) (HPC) 92 % of control | [9] 88 % of control

Cc1ccc(C(=O)CCC(=O)O)cc1
inactive: [13] 102 % of control | [14] 98 % of control | [15] 94 % of control

CS(=O)(=O)OCC1C2CCC(CC2)C1COS(C)(=O)=O (stereo not drawn)
inactive: [7] 100 % of control | [8] 103 % of control | [9] 102 % of control
